Entries after “also recorded” stand apart in the source; their conditions may differ.
What was measured:
[1] = system: U87MG/EGFRvIII cells; assay: Proliferation of U87MG/EGFRvIII cells; format: cell-based
Procedure: After structure-activity relationship (SAR) analysis, it was identified that that most compounds contained two aromatic rings bridged through an amide group.
(§1) To explore the anti-proliferative effects of MNPC, U87MG/EGFRVIII cells were treated with different doses of MNPC (0, 0.1, 0.5, 1 and 5 μM) for 5 days. […] Asparagine endopeptidase (AEP) is frequently overexpressed in numerous human cancers and mediates cancer cell invasion and metastasis. […] Since NQO1 and GSTP1 are the major binding proteins of MNPC, in vitro reductase enzyme activity assays with purified recombinant proteins was conducted. […] NQO1 also acts as an antioxidant enzyme by regenerating antioxidant forms of ubiquinone and vitamin E quinone. To explore whether the oxidative stress levels are correlated with the expression levels of antioxidant enzymes: NQO1 and GSTP1, the cellular ROS concentrations and cytotoxicity after MNPC treatment was examined. […] Thus, MNPC inhibits GSTP1 and NQ01 enzyme activities without altering their protein levels. […] The results were also confirmed by TUNEL assay.

[2] = molecular target: T1, GSTP1 (Homo sapiens, UniProt P09211); assay: BIACORE binding assay, GSTP1; settings: MNPC immobilized to the chip
[3] = system: U87MG/EGFR cells; assay: Cellular oxidative stress and cytotoxicity after MNPC treatment; format: cell-based
Procedure: as §1

[4] = system: U87MG/EGFRvIII cells; assay: Murine intracranial xenograft model with U87MG/EGFRvIII cells; format: in vivo, Nu/Nu nude mice
Procedure: Nu/Nu nude mice were treated with increasing doses (3, 10 mg/kg) of MNPC by i.p. every two days for total 10 times (n=6 mice per group). The survival curves of brain tumor-bearing mice were calculated.
To assess the therapeutic potential of MNPC, a murine intracranial xenograft model was used, inoculated with U87MG/EGFRvIII cells. After 7 days of brain injection of the GBM cells and the tumor formation, the animals were treated with vehicle or different doses of MNPC (3 or 10 mg/kg) every 2 days for a total of 10 times. […] The ROS levels and signaling cascades were examined in the tissue samples derived from tumors extracted from MNPC or vehicle-treated mice.

[5] = system: U87MG/EGFRvIII cells; assay: Cell invasion assay; format: cell-based
Procedure: as §1

[6] = molecular target: T2, NQO1 (Homo sapiens, UniProt P15559); assay: BIACORE binding assay, NQO1; settings: MNPC immobilized to the chip
[7] = molecular target: T3, Asparagine endopeptidase (AEP) (Homo sapiens, UniProt Q99538); assay: AEP enzymatic activity assay; format: cell-based
T3 construct: endogenous in cells; host or cells: U87MG/EGFRvIII (inferred from context)
T3 sequence (Q99538 18-323): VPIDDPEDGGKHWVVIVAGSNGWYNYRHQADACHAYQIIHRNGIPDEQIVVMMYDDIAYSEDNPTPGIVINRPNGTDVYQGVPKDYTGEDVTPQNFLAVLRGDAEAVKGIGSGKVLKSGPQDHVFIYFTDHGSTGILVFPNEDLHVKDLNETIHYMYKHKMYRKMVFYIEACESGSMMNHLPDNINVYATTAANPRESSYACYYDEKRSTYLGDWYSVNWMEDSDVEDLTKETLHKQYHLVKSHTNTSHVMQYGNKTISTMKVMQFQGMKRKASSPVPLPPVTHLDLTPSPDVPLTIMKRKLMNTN
Procedure: as §1

[8] = molecular target: T1, GSTP1; assay: In vitro enzyme activity assay, GSTP1; format: biochemical; settings: purified recombinant protein
Procedure: as §1

[9] = molecular target: T1, GSTP1; assay: Co-crystal structure with GSTP1
Procedure: (§2) Experiments indicate that both NQO1 and GSTP1 were overexpressed in GBM, which inhibit the oxidative stress and prevent cancer cell death. Compounds which act as NQO1 and GSTP1 dual inhibitors suppress the proliferation and stimulated apoptosis in U87MG/EGFRVIII cells. […] Thus, these experiments indicate that a small dual inhibitor for both NQO1 and GSTP1 disrupting the redox homeostasis might be an innovative strategy for GBM therapy.

[10] = system: GSTP1; assay: GSTP1 protein level upon treatment; format: cell-based; settings: upon MNPC treatment
Procedure: as §1

[11] = molecular target: T2, NQO1; assay: In vitro reductase enzyme activity assay, NQO1; format: biochemical; settings: purified recombinant protein
Procedure: as §1

[12] = system: U87MG/EGFRvIII cells; assay: Apoptosis (caspase-3 activation, TUNEL assay); format: cell-based
Procedure: as §1

[13] = system: NQO1; assay: NQO1 protein level upon treatment; format: cell-based; settings: upon MNPC treatment
Procedure: as §1

[14] = molecular target: T2, NQO1; assay: Co-crystal structure with NQO1
Procedure: as §2

[15] = 3 or 10 mg/kg i.p. every 2 days, 10 times, especially 10 mg/kg

## O=C(Nc1ncc([N+](=O)[O-])s1)c1ccccc1O [TIZ, 2-hydroxy-N-(5-nitrothiazol-2-yl)benzamide]
[1]
  anti-proliferative activities toward U87MG/EGFRvIII cells compared with MNPC: comparable anti-proliferative activities

## CC(=O)Oc1ccccc1C(=O)Nc1ncc([N+](=O)[O-])s1 [NTZ, 2-((5-nitrothiazol-2-yl)carbamoyl)phenyl acetate]
[1]
  anti-proliferative activities toward U87MG/EGFRvIII cells compared with MNPC: comparable anti-proliferative activities

## Cc1onc(-c2ccccc2)c1C(=O)Nc1ncc([N+](=O)[O-])s1 [MNPC, 5-methyl-N-(5-nitrothiazol-2-yl)-3-phenylisoxazole-4-carboxamide]
[2]
  Kd: 0.0896 µM
[3]
  Carbonyl Expression: escalated
[3]; cytotoxicity
  LDH: escalated
[3]; dose-dependent
  ROS levels: increased
[3]; in a dose-dependent manner
  GSH/GSSH ratios: down-regulated
[1]; U87MG/EGFRVIII cells, 0, 0.1, 0.5, 1 and 5 μM for 5 days
  cell proliferation: dose-dependently inhibited
[4]; 3 or 10 mg/kg i.p. every 2 days, 10 times
  tumor growth (intracranial tumor volume): dose-dependent anti-tumor effect; also recorded: suppresses tumor growth
[4]; [15]
  body weight: significantly increased
  survival rates: prolonged the survival rate; also recorded: significantly increased; also recorded: elongates mouse life span
[4]; tumors from treated mice
  ROS levels in tumor tissue samples: strongly increased
  apoptotic caspase 3 in tumor tissue samples: activated
[5]
  cell invasion: no significant difference
[6]
  Kd: 0.0908 µM
[7]
  AEP enzymatic activity: no significant difference
[8]
  IC50: 0.797 µM
[9]
  effect on GSTP1 active site in co-crystal structure: blocked the active enzymatic sites
[10]
  protein level of GSTP1: not changed
[11]
  IC50: 0.926 µM
[12]; TUNEL assay
  cell apoptosis: dose-dependently increases
[12]; U87MG/EGFRvIII cells
  caspase-3 activation: induced
[13]
  protein level of NQO1: not changed
[14]
  effect on NQO1 active site in co-crystal structure: blocked the active enzymatic sites

From patent US12478614B2, “Inhibitors of glutathione s-transferases (GSTs) and NAD(P)H:quinone oxidoreductase 1 (NQO1), pharmaceutical compositions, and uses in managing cancer” (Emory University, priority 2020, dated 2025)
